The values that follow come from patent publication US4450269A, “Mono-5-substituted-3-chloro-4H-1,2,6-thiadiazin-4-one antifungal agents” (FMC Corporation, priority 1980, dated 1984).

Assay [1] deals with Erysiphe polygoni. Nature of the assay: whole plant or invertebrate. The following applies: foliar, 24 h, read-out: Percent Disease Control, curative, bean powdery mildew.
The test system of assay [2] is Sclerotinia fructicola. Nature of the assay: Mycelial growth test. The class given is cell-based. Conditions: SF; for inhibition at 5 ppm / inhibition at 10 ppm / inhibition at 20 ppm / inhibition at 40 ppm: Sclerotinia, 72 h, read-out: Percent Fungus Growth Inhibition; for Percent Fungus Growth Inhibition: 72 hours. An excerpt:
| SF = Sclerotinia fructicola

Assay [3] deals with Pyricularia oryzae. Nature of the assay: whole plant or invertebrate. The class given is in vivo. The following applies: for pest or weed control at 150 ppm: Pyricularia oryzae, foliar, 24 h, read-out: Percent Disease Control, curative, rice blast, 150 ppm, 24 hours after inoculation.
In assay [4] the test system is Uromyces phaseoli. Briefly: whole plant or invertebrate. The following applies: foliar, 24 h, read-out: Percent Disease Control, curative, bean rust.
Assay [5] has as its system Uromyces phaseoli. Briefly: whole plant or invertebrate. Conditions: foliar, read-out: Percent Disease Control, foliar, bean rust.

Molecules are shown by their SMILES. Read-outs that look alike come from different tables or passages of the source.

Usually inhibition stands for the relative decrease from the control value, in per cent. For `CCCCOc1ccc(Oc2nsnc(Cl)c2=O)cc1` [Compound 6, 3-chloro-5-(4-n-butoxyphenoxy)-4H--1,2,6-thiadiazin-4-one], the pest or weed control at 150 ppm came to 100% in assay [1], 0% in assay [3], 90% in assay [4] and 0% in assay [5]. Besides, the inhibition at 5 ppm in assay [2] (5 ppm) was 0%. For the same compound, in assay [2] (10 ppm), the inhibition at 10 ppm turned out to be 67%. Further, the inhibition at 20 ppm in assay [2] worked out at 0%. The inhibition at 40 ppm in assay [2] is 67%.

As for `CCOC(=O)c1ccc(Oc2nsnc(Cl)c2=O)cc1` [Compound 7, 3-chloro-5-(4-ethoxycarbonylphenoxy)-4H--1,2,6-thiadiazin-4-one], the pest or weed control at 150 ppm in assay [1] came to 0%; in assay [3] it was 0%; in assay [4], 0%; in assay [5] it was 100%. Also, in assay [2] (5 ppm), the inhibition at 5 ppm stood at 54%. Further, the inhibition at 10 ppm in assay [2] (10 ppm) worked out at 100%. Further, the inhibition at 20 ppm in assay [2] stood at 100%. The inhibition at 40 ppm in assay [2] was 100%.

Take `CC(=O)Nc1ccc(Oc2nsnc(Cl)c2=O)cc1` [Compound 8, 5-(4-acetylaminophenoxy)-3-chloro-4H--1,2,6-thiadiazin-4-one]: the pest or weed control at 150 ppm in assay [1] was found to be 0%; in assay [3], 0%; in assay [4], 0%; in assay [5] it was 100%. In addition, the inhibition at 5 ppm in assay [2] (5 ppm) was found to be 0%. Besides, the inhibition at 10 ppm in assay [2] (10 ppm) turned out to be 0%. For the same compound, in assay [2], the inhibition at 20 ppm came out at 51%. The inhibition at 40 ppm in assay [2] was 60%.

Consider `O=c1c(Cl)nsnc1Oc1ccc([N+](=O)[O-])cc1` [Compound 9, 3-chloro-5-(4-nitrophenoxy)-4H--1,2,6-thiadiazin-4-one], for which the pest or weed control at 150 ppm in assay [1] was 0%; in assay [3], 90%; in assay [4], 0%; in assay [5] it was 98%. For the same compound, the inhibition at 5 ppm in assay [2] (5 ppm) stood at 58%. Moreover, the inhibition at 10 ppm in assay [2] (10 ppm) was determined as 76%. The inhibition at 20 ppm in assay [2] stood at 100%. The inhibition at 40 ppm in assay [2] amounted to 100%.

In the case of `N#Cc1ccc(Oc2nsnc(Cl)c2=O)cc1` [Compound 10, 3-chloro-5-(4-cyanophenoxy)-4H--1,2,6-thiadiazin-4-one], the pest or weed control at 150 ppm in assay [1] came to 0%; in assay [3], 0%; in assay [4], 0%; in assay [5] it was 100%. The inhibition at 10 ppm in assay [2] (10 ppm) turned out to be 33%. Further, the inhibition at 20 ppm in assay [2] amounted to 100%. Moreover, the inhibition at 40 ppm in assay [2] was 100%.

In the case of `O=c1c(Cl)nsnc1Oc1ccc(F)cc1` [Compound 11, 3-chloro-5-(4-fluorophenoxy)-4H--1,2,6-thiadiazin-4-one], the pest or weed control at 150 ppm in assay [1] was determined as 100%; in assay [3] it was 0%; in assay [4], 0%; in assay [5], 0%. Also, the inhibition at 5 ppm in assay [2] (5 ppm) amounted to 100%. Also, the inhibition at 10 ppm in assay [2] (10 ppm) stood at 100%. The inhibition at 20 ppm in assay [2] was found to be 100%. The inhibition at 40 ppm in assay [2] was determined as 100%.

As for `O=c1c(Cl)nsnc1Oc1ccc(Cl)cc1` [Compound 12, 3-chloro-5-(4-chlorophenoxy)-4H--1,2,6-thiadiazin-4-one], the pest or weed control at 150 ppm was determined as 50% in assay [1], 75% in assay [3], 0% in assay [4] and 100% in assay [5]. Besides, the inhibition at 5 ppm in assay [2] (5 ppm) came out at 64%. The inhibition at 10 ppm in assay [2] (10 ppm) is 82%. The inhibition at 20 ppm in assay [2] amounted to 100%. In addition, the inhibition at 40 ppm in assay [2] came to 100%.

Regarding `O=c1c(Cl)nsnc1Oc1cccc(Cl)c1` [Compound 13, 3-chloro-5-(3-chlorophenoxy)-4H--1,2,6-thiadiazin-4-one], the pest or weed control at 150 ppm is 100% in assay [1], 0% in assay [3], 90% in assay [4] and 100% in assay [5]. For the same compound, the inhibition at 5 ppm in assay [2] (5 ppm) was found to be 51%. The inhibition at 10 ppm in assay [2] (10 ppm) came out at 67%. The inhibition at 20 ppm in assay [2] was determined as 100%. The inhibition at 40 ppm in assay [2] came out at 100%.

For the compound `O=c1c(Cl)nsnc1Oc1ccccc1Cl` [Compound 14, 3-chloro-5-(2-chlorophenoxy)-4H--1,2,6-thiadiazin-4-one], the pest or weed control at 150 ppm in assay [1] turned out to be 50%; in assay [3] it was 0%; in assay [4] it was 100%; in assay [5], 0%. Moreover, the inhibition at 5 ppm in assay [2] (5 ppm) was found to be 47%. The inhibition at 10 ppm in assay [2] (10 ppm) worked out at 64%. Also, the inhibition at 20 ppm in assay [2] was 87%. For the same compound, the inhibition at 40 ppm in assay [2] was determined as 100%.

`O=c1c(Cl)nsnc1Oc1ccc(Br)cc1` [Compound 15, 3-chloro-5-(4-bromophenoxy)-4H--1,2,6-thiadiazin-4-one]: the pest or weed control at 150 ppm in assay [1] stood at 100%; in assay [3], 95%; in assay [4], 90%; in assay [5], 100%. In addition, the inhibition at 5 ppm in assay [2] (5 ppm) came out at 92%. Moreover, the inhibition at 10 ppm in assay [2] (10 ppm) is 83%. The inhibition at 20 ppm in assay [2] was found to be 83%. Moreover, the inhibition at 40 ppm in assay [2] came out at 88%.

In the case of `O=c1c(Cl)nsnc1Oc1ccc(Cl)c(Cl)c1` [Compound 16, 3-chloro-5-(3,4-dichlorophenoxy)-4H--1,2,6-thiadiazin-4-one], the pest or weed control at 150 ppm is 0% in assay [1], 90% in assay [3], 0% in assay [4] and 90% in assay [5]. The inhibition at 5 ppm in assay [2] (5 ppm) worked out at 64%. In assay [2] (10 ppm), the inhibition at 10 ppm came out at 67%. Further, in assay [2], the inhibition at 20 ppm came out at 67%. In assay [2], the inhibition at 40 ppm is 67%.

Take `O=c1c(Cl)nsnc1Oc1ccc(Cl)cc1Cl` [Compound 17, 3-chloro-5-(2,4-dichlorophenoxy)-4H--1,2,6-thiadiazin-4-one]: the pest or weed control at 150 ppm in assay [1] amounted to 100%; in assay [3], 0%; in assay [4] it was 100%; in assay [5], 100%. The inhibition at 5 ppm in assay [2] (5 ppm) is 62%. Further, the inhibition at 10 ppm in assay [2] (10 ppm) stood at 76%. In assay [2], the inhibition at 20 ppm is 96%. In assay [2], the inhibition at 40 ppm was 100%.

Consider `O=c1c(Cl)nsnc1Oc1c(Cl)cccc1Cl` [Compound 18, 3-chloro-5-(2,6-dichlorophenoxy)-4H--1,2,6-thiadiazin-4-one], for which the pest or weed control at 150 ppm in assay [1] was 100%; in assay [3], 0%; in assay [4], 0%; in assay [5], 100%. Moreover, the inhibition at 5 ppm in assay [2] (5 ppm) was 51%. The inhibition at 10 ppm in assay [2] (10 ppm) came to 64%. In addition, the inhibition at 20 ppm in assay [2] is 89%. Besides, in assay [2], the inhibition at 40 ppm was 100%.

As for `O=c1c(Cl)nsnc1Oc1cc(Cl)cc(Cl)c1` [Compound 20, 3-chloro-5-(3,5-dichlorophenoxy)-4H--1,2,6-thiadiazin-4-one], the pest or weed control at 150 ppm in assay [1] was 100%; in assay [3] it was 0%; in assay [4] it was 0%; in assay [5], 100%. In assay [2] (5 ppm), the inhibition at 5 ppm was found to be 60%. Further, the inhibition at 10 ppm in assay [2] (10 ppm) was determined as 73%. Further, the inhibition at 20 ppm in assay [2] worked out at 84%. Besides, the inhibition at 40 ppm in assay [2] was 87%.

In the case of `Cc1cccc(Oc2nsnc(Cl)c2=O)c1` [Compound 21, 3-chloro-5-(3-methylphenoxy)-4H--1,2,6-thiadiazin-4-one], the pest or weed control at 150 ppm is 100% in assay [1], 85% in assay [3], 0% in assay [4] and 100% in assay [5]. In addition, the inhibition at 5 ppm in assay [2] (5 ppm) stood at 100%. Further, the inhibition at 10 ppm in assay [2] (10 ppm) came out at 100%. The inhibition at 20 ppm in assay [2] was determined as 100%. For the same compound, the inhibition at 40 ppm in assay [2] worked out at 100%.

As to `Cc1ccccc1Oc1nsnc(Cl)c1=O` [Compound 22, 3-chloro-5-(2-methylphenoxy)-4H--1,2,6-thiadiazin-4-one], the pest or weed control at 150 ppm in assay [1] was 100%; in assay [3] it was 0%; in assay [4] it was 0%; in assay [5] it was 100%. Further, the inhibition at 5 ppm in assay [2] (5 ppm) stood at 24%. In assay [2] (10 ppm), the inhibition at 10 ppm was 100%. Moreover, the inhibition at 20 ppm in assay [2] was found to be 100%. Besides, in assay [2], the inhibition at 40 ppm was found to be 100%.

Regarding `Cc1ccc(Oc2nsnc(Cl)c2=O)c(C)c1` [Compound 23, 3-chloro-5-(2,4-dimethylphenoxy)-4H--1,2,6-thiadiazin-4-one], the pest or weed control at 150 ppm in assay [1] came to 0%; in assay [3], 0%; in assay [4] it was 0%; in assay [5], 100%. For the same compound, the inhibition at 5 ppm in assay [2] (5 ppm) was found to be 82%. Further, the inhibition at 10 ppm in assay [2] (10 ppm) was found to be 100%. For the same compound, in assay [2], the inhibition at 20 ppm is 100%. In assay [2], the inhibition at 40 ppm was found to be 100%.

Turning to `Cc1cccc(C)c1Oc1nsnc(Cl)c1=O` [Compound 24, 3-chloro-5-(2,6-dimethylphenoxy)-4H--1,2,6-thiadiazin-4-one], the pest or weed control at 150 ppm in assay [1] came out at 100%; in assay [3] it was 95%; in assay [4] it was 0%; in assay [5], 100%. The inhibition at 5 ppm in assay [2] (5 ppm) was found to be 100%. Further, the inhibition at 10 ppm in assay [2] (10 ppm) was found to be 100%. Moreover, the inhibition at 20 ppm in assay [2] turned out to be 100%. Also, the inhibition at 40 ppm in assay [2] stood at 100%.

For `Cc1cc(C)cc(Oc2nsnc(Cl)c2=O)c1` [Compound 25, 3-chloro-5-(3,5-dimethylphenoxy)-4H--1,2,6-thiadiazin-4-one], the pest or weed control at 150 ppm is 100% in assay [1], 0% in assay [3], 0% in assay [4] and 100% in assay [5]. Moreover, the inhibition at 5 ppm in assay [2] (5 ppm) stood at 82%. Further, the inhibition at 10 ppm in assay [2] (10 ppm) was 100%. Moreover, the inhibition at 20 ppm in assay [2] turned out to be 100%. Besides, the inhibition at 40 ppm in assay [2] is 100%.

`Nc1ccc(Oc2nsnc(Cl)c2=O)cc1` [Compound 26, 5-(4-aminophenoxy)-3-chloro-4H--1,2,6-thiadiazin-4-one]: the pest or weed control at 150 ppm in assay [1], in assay [4] and in assay [5] was 0% in each case. Further, the figures for the “Percent Fungus Growth Inhibition” value in assay [2] (5 ppm) and in assay [2] (10 ppm) were 17% and 66%, respectively. Besides, the inhibition at 40 ppm in assay [2] is 100%. In assay [3] (150 ppm, 24 hours after inoculation), the “Percent Disease Control, curative, rice blast” value is 0%.
